Key:
[1] = target: Aurora kinase C (Homo sapiens) (UniProt Q9UQB9); assay: Inhibition of wild-type human full length AURKC (M1 to S275 residues) expressed in bacterial expression system assessed as residual activity at 1 uM by Kinomescan method relative to control
[2] = target: Cyclin-dependent kinase 11B (Homo sapiens) (UniProt P21127); assay: Inhibition of wild-type human partial length CDC2L1 (P353 to G692 residues) expressed in bacterial expression system assessed as residual activity at 1 uM by Kinomescan method relative to control
[3] = target: Cyclin-dependent kinase 5 (Homo sapiens) (UniProt Q00535); assay: Inhibition of wild-type human full length CDK5 (M1 to P292 residues) expressed in bacterial expression system assessed as residual activity at 1 uM by Kinomescan method relative to control
[4] = target: Cyclin-dependent kinase-like 3 (Homo sapiens) (UniProt Q8IVW4); assay: Inhibition of wild-type human partial length CDKL3 (M1 to D327 residues) expressed in bacterial expression system assessed as residual activity at 1 uM by Kinomescan method relative to control
[5] = target: Casein kinase I isoform gamma-1 (Homo sapiens) (UniProt Q9HCP0); assay: Inhibition of wild-type human partial length CSNK1G1 (T15 to S353 residues) expressed in bacterial expression system assessed as residual activity at 1 uM by Kinomescan method relative to control
[6] = target: Casein kinase II subunit alpha' (Homo sapiens) (UniProt P19784); assay: Inhibition of wild-type human full length CSNK2A2 (M1 to R350 residues) expressed in mammalian expression system assessed as residual activity at 1 uM by Kinomescan method relative to control
[7] = target: Death-associated protein kinase 3 (Homo sapiens) (UniProt O43293); assay: Inhibition of wild-type human partial length DAPK3 (M1 to A277 residues) expressed in bacterial expression system assessed as residual activity at 1 uM by Kinomescan method relative to control
[8] = target: Serine/threonine-protein kinase DCLK3 (Homo sapiens) (UniProt Q9C098); assay: Inhibition of wild-type human partial length DCAMKL3 (E140 to V628 residues) expressed in bacterial expression system assessed as residual activity at 1 uM by Kinomescan method relative to control
[9] = target: Ephrin type-A receptor 4 (Homo sapiens) (UniProt P54764); assay: Inhibition of wild-type human partial length EPHA4 (T601 to R897 residues) expressed in bacterial expression system assessed as residual activity at 1 uM by Kinomescan method relative to control
[10] = target: Ephrin type-A receptor 8 (Homo sapiens) (UniProt P29322); assay: Inhibition of wild-type human partial length EPHA8 (Q608 to C920 residues) expressed in bacterial expression system assessed as residual activity at 1 uM by Kinomescan method relative to control
[11] = target: Mitogen-activated protein kinase 1 (Homo sapiens) (UniProt P28482); assay: Inhibition of wild-type human full length ERK2 (M1 to S360 residues) expressed in bacterial expression system assessed as residual activity at 1 uM by Kinomescan method relative to control
[12] = target: Receptor-type tyrosine-protein kinase FLT3 (Homo sapiens) (UniProt P36888); assay: Inhibition of wild-type human partial length FLT3 (V592 to Y969 residues) expressed in bacterial expression system assessed as residual activity at 1 uM by Kinomescan method relative to control
[13] = target: Rhodopsin kinase GRK1 (Homo sapiens) (UniProt Q15835); assay: Inhibition of wild-type human full length GRK1 (M1 to S563 residues) expressed in mammalian expression system assessed as residual activity at 1 uM by Kinomescan method relative to control
[14] = target: Tyrosine-protein kinase HCK (Homo sapiens) (UniProt P08631); assay: Inhibition of wild-type human full length HCK (M22 to P526 residues) expressed in bacterial expression system assessed as residual activity at 1 uM by Kinomescan method relative to control
[15] = target: Homeodomain-interacting protein kinase 2 (Homo sapiens) (UniProt Q9H2X6); assay: Inhibition of wild-type human partial length HIPK2 (M153 to S564 residues) expressed in mammalian expression system assessed as residual activity at 1 uM by Kinomescan method relative to control
[16] = target: Inhibitor of nuclear factor kappa-B kinase subunit epsilon (Homo sapiens) (UniProt Q14164); assay: Inhibition of wild-type human full length IKK-epsilon (M1 to V716 residues) expressed in mammalian expression system assessed as residual activity at 1 uM by Kinomescan method relative to control
[17] = system: Leucine-rich repeat serine/threonine-protein kinase 2 (Homo sapiens), Q5S007 [G2019S]; assay: Inhibition of human partial length LRRK2 G2019S mutant (H970 to E2527 residues) expressed in mammalian expression system assessed as residual activity at 1 uM by Kinomescan method relative to control
[18] = target: Serine/threonine-protein kinase Nek9 (Homo sapiens) (UniProt Q8TD19); assay: Inhibition of wild-type human partial length NEK9 (P32 to R328 residues) expressed in bacterial expression system assessed as residual activity at 1 uM by Kinomescan method relative to control
[19] = target: Phosphatidylinositol 3-kinase C2 domain-containing subunit gamma (Homo sapiens) (UniProt O75747); assay: Inhibition of wild-type human partial length PIK3C2G (M1 to I1446 residues) expressed in mammalian expression system assessed as residual activity at 1 uM by Kinomescan method relative to control
[20] = system: Phosphatidylinositol 4,5-bisphosphate 3-kinase catalytic subunit alpha isoform (Homo sapiens), P42336 [E545K]; assay: Inhibition of human partial length PIK3CA E545K mutant (R108 to N1068 residues) expressed in mammalian expression system assessed as residual activity at 1 uM by Kinomescan method relative to control
[21] = target: Serine/threonine-protein kinase RIO1 (Homo sapiens) (UniProt Q9BRS2); assay: Inhibition of wild-type human full length RIOK1 (M1 to K568 residues) expressed in bacterial expression system assessed as residual activity at 1 uM by Kinomescan method relative to control
[22] = target: Serine/threonine-protein kinase RIO3 (Homo sapiens) (UniProt O14730); assay: Inhibition of wild-type human full length RIOK3 (M1 to E519 residues) expressed in bacterial expression system assessed as residual activity at 1 uM by Kinomescan method relative to control
[23] = target: Ribosomal protein S6 kinase alpha-3 (Homo sapiens) (UniProt P51812); assay: Inhibition of wild-type human partial length C-terminal RSK2 kinase domain 2 (V402 to S715 residues) expressed in mammalian expression system assessed as residual activity at 1 uM by Kinomescan method relative to control
[24] = target: Serine/threonine-protein kinase VRK2 (Homo sapiens) (UniProt Q86Y07); assay: Inhibition of wild-type human partial length VRK2 (M1 to T336 residues) expressed in mammalian expression system assessed as residual activity at 1 uM by Kinomescan method relative to control
[25] = target: Serine/threonine-protein kinase WNK2 (Homo sapiens) (UniProt Q9Y3S1); assay: Inhibition of wild-type human partial length WNK2 (V47 to D482 residues) expressed in mammalian expression system assessed as residual activity at 1 uM by Kinomescan method relative to control

C=CC(=O)Nc1cc(Nc2cc(-c3cccc(NC(=O)c4ccc(C(C)(C)C)cc4)c3C)cn(C)c2=O)ccc1C(=O)N1CCOCC1
Activity [1]: 100%
Activity [2]: 96%
Activity [3]: 90%
Activity [4]: 91%
Activity [5]: 98%
Activity [6]: 100%
Activity [7]: 100%
Activity [8]: 100%
Activity [9]: 83%
Activity [10]: 97%
Activity [11]: 91%
Activity [12]: 94%
Activity [13]: 100%
Activity [14]: 100%
Activity [15]: 100%
Activity [16]: 100%
Activity [17]: 58%
Activity [18]: 98%
Activity [19]: 95%
Activity [20]: 100%
Activity [21]: 100%
Activity [22]: 78%
Activity [23]: 96%
Activity [24]: 100%
Activity [25]: 99%
